Assay results: ChEMBL document CHEMBL1201862, “PubChem BioAssay data set” (2004)
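Step 1: Grow cells in 96-well plates. Step 2: Expose to compound for 48 hours at 5 concentrations. Step 3: Interpolate endpoints linearly; if unreached, use highest concentration. GI50: concentration for 50% inhibition of growth.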 Activity calls are given as the source filed them. Cut-off read from the data, not from the text of the source: active = GI50 up to about 1.1 µM and inactive = higher.

What was measured:
Assay in all cases: inhibition of tumour cell growth, NCI panel, 48 h
NCI/ADR-RES = tested on: NCI/ADR-RES
SNB-19 = tested on: SNB-19
UACC-62 = tested on: UACC-62
PC-3 = tested on: PC-3
LOX IMVI = tested on: LOX IMVI
SF-539 = tested on: SF-539
SF-268 = tested on: SF-268
OVCAR-3 = tested on: OVCAR-3
SF-295 = tested on: SF-295
MCF7 = tested on: MCF7
SW-620 = tested on: SW-620
SK-MEL-5 = tested on: SK-MEL-5
ACHN = tested on: ACHN
HCC 2998 = tested on: HCC 2998
SR = tested on: SR
SN12C = tested on: SN12C
A549 = tested on: A549
OVCAR-4 = tested on: OVCAR-4
RXF 393 = tested on: RXF 393
MDA-MB-231 = tested on: MDA-MB-231

SMILES | GI50 (NCI/ADR-RES) | GI50 (SNB-19) | GI50 (UACC-62) | GI50 (PC-3) | GI50 (LOX IMVI) | GI50 (SF-539) | GI50 (SF-268) | GI50 (OVCAR-3) | GI50 (SF-295) | GI50 (MCF7) | GI50 (SW-620) | GI50 (SK-MEL-5) | GI50 (ACHN) | GI50 (HCC 2998) | GI50 (SR) | GI50 (SN12C) | GI50 (A549) | GI50 (OVCAR-4) | GI50 (RXF 393) | GI50 (MDA-MB-231)
COc1cc(OC)c(C2c3cc4c(cc3OC(N3CCCC3)C2C)OCO4)c(OC)c1 (stereo not given) | 15.2 µM (inactive) | 15 µM (inactive) | 16.6 µM (inactive) | 15.7 µM (inactive) | 11.9 µM (inactive) | 12.1 µM (inactive) | 8.49 µM (inactive) | 4.26 µM (inactive) | 8.97 µM (inactive) | 14.9 µM (inactive) | 9.59 µM (inactive) | 13.8 µM (inactive) | 5.11 µM (inactive) | 10.1 µM (inactive) | 11.1 µM (inactive) | 15.3 µM (inactive) | 19.7 µM (inactive) |  |  | 
COc1cc(/C=C2\[C@H]3c4c(c(OC)c(C)c(OC)c4OC)C[C@@H](C(=O)N2Cc2ccccc2)N3C(=O)OC(C)C)c(OC)c(C)c1OC |  |  | 92.9 µM (inactive) |  | > 100 µM (inactive) | > 100 µM (inactive) | > 100 µM (inactive) | 67.3 µM (inactive) | > 100 µM (inactive) |  | 54 µM (inactive) | 48.4 µM (inactive) | > 100 µM (inactive) | 29.6 µM (inactive) | 21.8 µM (inactive) | 88.7 µM (inactive) | > 100 µM (inactive) | 69.3 µM (inactive) | > 100 µM (inactive) | 
O=C1c2ccccc2C(=O)c2sc(Nc3ccccc3C(F)(F)F)nc21 |  | 21.5 µM (inactive) | 11.6 µM (inactive) | 12.2 µM (inactive) | 25.1 µM (inactive) | 19.9 µM (inactive) | 11 µM (inactive) | 7.33 µM (inactive) | 15.6 µM (inactive) | 16.4 µM (inactive) | 6.1 µM (inactive) | 8.05 µM (inactive) | 16.6 µM (inactive) | 15.5 µM (inactive) | 4.16 µM (inactive) | 32.6 µM (inactive) | 21.2 µM (inactive) |  | 20.8 µM (inactive) | 0.264 µM (active)
O=C1c2ccc(O)c(O)c2C(=O)c2c(O)ccc(O)c21 [QUINALIZARIN] |  | 29 µM (inactive) | 21.4 µM (inactive) |  | 18.2 µM (inactive) | 21.4 µM (inactive) | 26.6 µM (inactive) | 20.3 µM (inactive) | 27.1 µM (inactive) |  | 28.2 µM (inactive) |  | 23 µM (inactive) | 23.3 µM (inactive) | 26.5 µM (inactive) | 24 µM (inactive) | 21.1 µM (inactive) | 2.1 µM (inactive) | 26.1 µM (inactive) | 
COc1ccc(CC2NCCc3cc(OC)c(OC)cc32)cc1 (stereo not given) |  | > 100 µM (inactive) | > 100 µM (inactive) |  | > 100 µM (inactive) | > 100 µM (inactive) | > 100 µM (inactive) | > 100 µM (inactive) | > 100 µM (inactive) |  | > 100 µM (inactive) | > 100 µM (inactive) | > 100 µM (inactive) | > 100 µM (inactive) | > 100 µM (inactive) | > 100 µM (inactive) | > 100 µM (inactive) | > 100 µM (inactive) | > 100 µM (inactive) | 
C#CC1(O)CCCCCCCCC2(CCCCCCCC1)OCCO2 | 18.1 µM (inactive) | 18.9 µM (inactive) | 14.8 µM (inactive) | 12.8 µM (inactive) | 22.1 µM (inactive) | 18 µM (inactive) | 17.3 µM (inactive) | 15.4 µM (inactive) | 19.8 µM (inactive) | 20.3 µM (inactive) | 18.8 µM (inactive) | 19.2 µM (inactive) | 13.8 µM (inactive) | 15.5 µM (inactive) | 12.3 µM (inactive) | 17.4 µM (inactive) | 13.9 µM (inactive) | 4.81 µM (inactive) | 10.9 µM (inactive) | 
CCCCCCCC(CC(=O)NC(CO)C(=O)NC(CO)CC(C)C)OC(=O)CC(CCCCCCC)OC(=O)CC(CCCCCCC)OC1OC(C)C(O)C(OC2OC(C)C(OC(C)=O)C(O)C2O)C1O (stereo not given) |  | 5.27 µM (inactive) | 6.34 µM (inactive) | 4.04 µM (inactive) |  | 11 µM (inactive) | 8.28 µM (inactive) | 11.8 µM (inactive) | 12 µM (inactive) | 11.1 µM (inactive) | 10.7 µM (inactive) | 10 µM (inactive) | 15.7 µM (inactive) | 5.05 µM (inactive) | 2.55 µM (inactive) | 6.49 µM (inactive) | 11.2 µM (inactive) | 5.01 µM (inactive) | 3.76 µM (inactive) | 7.91 µM (inactive)
C[Si](C)(C)/C(Br)=C\CCN1C(=O)CCC1=O |  | > 100 µM (inactive) | > 100 µM (inactive) |  | > 100 µM (inactive) | > 100 µM (inactive) | > 100 µM (inactive) | > 100 µM (inactive) | > 100 µM (inactive) |  | > 100 µM (inactive) | > 100 µM (inactive) | > 100 µM (inactive) | > 100 µM (inactive) | > 100 µM (inactive) | > 100 µM (inactive) | > 100 µM (inactive) | > 100 µM (inactive) | > 100 µM (inactive) | 
Cc1ccc(-c2ccc(Nc3c4ccccc4nc4ccccc34)cc2)cn1 | 8.89 µM (inactive) | 5.86 µM (inactive) | 3.08 µM (inactive) | 4.97 µM (inactive) | 2.71 µM (inactive) | 3.85 µM (inactive) | 8.75 µM (inactive) | 2.63 µM (inactive) | 2.37 µM (inactive) | 2.26 µM (inactive) | 4.01 µM (inactive) | 4.41 µM (inactive) | 2.32 µM (inactive) | 29 µM (inactive) | 2.07 µM (inactive) | 3.89 µM (inactive) | 2.3 µM (inactive) |  |  | 
CCCCCCCCCCCCCC(=O)O[C@H]1CC[C@H](NC(=O)[C@H](OC)[C@H](O)[C@@H](O)[C@H](O)/C=C/C(C)C)C(=O)N(C)C1 [BENGAMIDE B] |  | 0.008 µM (active) | 0.00807 µM (active) |  | 0.00216 µM (active) | 0.0108 µM (active) | 0.0036 µM (active) | 0.00643 µM (active) | 0.00675 µM (active) |  | 0.00433 µM (active) | 0.0199 µM (active) | 0.00261 µM (active) | 0.00195 µM (active) | 0.0021 µM (active) | 0.00419 µM (active) | < 0.0015 µM (active) | 0.014 µM (active) | 0.0615 µM (active) | 
CN1CCN(c2ccc3nc(C4=C(O)C(=O)[C@@H]5C(=C4O)N=C(CO)N5C)[nH]c3n2)CC1 | > 100 µM (inactive) | 57.5 µM (inactive) | 33.3 µM (inactive) | 69.8 µM (inactive) | 73.1 µM (inactive) | 33.5 µM (inactive) | 74.3 µM (inactive) | 91 µM (inactive) | > 100 µM (inactive) |  | > 100 µM (inactive) |  | > 100 µM (inactive) | 68.4 µM (inactive) |  | > 100 µM (inactive) | > 100 µM (inactive) | 75.2 µM (inactive) | > 100 µM (inactive) | 62.5 µM (inactive)
COC(=O)C(=O)C(C(=O)C(=O)Nc1ccc(F)cc1)c1nc2ccc([N+](=O)[O-])cc2nc1O (stereo not given) |  | > 100 µM (inactive) |  |  | > 100 µM (inactive) | > 100 µM (inactive) | > 100 µM (inactive) | > 100 µM (inactive) | > 100 µM (inactive) |  | > 100 µM (inactive) | > 100 µM (inactive) |  | > 100 µM (inactive) | > 100 µM (inactive) | > 100 µM (inactive) | > 100 µM (inactive) | > 100 µM (inactive) | > 100 µM (inactive) | 
CCCCN(CCCC)CC(C(=O)Nc1ccc([N+](=O)[O-])cc1[N+](=O)[O-])/C(C)=N\NC(=O)C[N+](C)(C)C (stereo not given) |  | > 100 µM (inactive) | > 100 µM (inactive) |  | 33.3 µM (inactive) | > 100 µM (inactive) | > 100 µM (inactive) | > 100 µM (inactive) | > 100 µM (inactive) |  |  | > 100 µM (inactive) | > 100 µM (inactive) | > 100 µM (inactive) | 25.1 µM (inactive) | > 100 µM (inactive) | > 100 µM (inactive) | > 100 µM (inactive) | 92.7 µM (inactive) | 
CC1CC(=O)C(CC(=O)O)C1C(C(=O)C(=O)Nc1c(C#N)cccc1[N+](=O)[O-])[N+](=O)[O-] (stereo not given) |  | > 100 µM (inactive) | > 100 µM (inactive) |  | > 100 µM (inactive) | > 100 µM (inactive) | > 100 µM (inactive) | > 100 µM (inactive) | > 100 µM (inactive) |  | > 100 µM (inactive) | > 100 µM (inactive) | > 100 µM (inactive) | > 100 µM (inactive) | > 100 µM (inactive) |  | > 100 µM (inactive) | > 100 µM (inactive) | > 100 µM (inactive) | 
CN(CCO)c1nc2c(c(=O)[nH]1)CNCC2 |  | > 100 µM (inactive) | > 100 µM (inactive) |  | > 100 µM (inactive) | > 100 µM (inactive) | > 100 µM (inactive) | > 100 µM (inactive) | > 100 µM (inactive) |  | > 100 µM (inactive) | > 100 µM (inactive) | > 100 µM (inactive) | > 100 µM (inactive) | > 100 µM (inactive) | > 100 µM (inactive) | > 100 µM (inactive) | > 100 µM (inactive) | > 100 µM (inactive) | 
COc1cc(/C=N/N=C(\N)NO)cc(Cl)c1O |  | > 100 µM (inactive) | 42.4 µM (inactive) |  | 31 µM (inactive) | 34.4 µM (inactive) | 46.7 µM (inactive) | 70.3 µM (inactive) | 58.7 µM (inactive) |  | 99.3 µM (inactive) | 33.4 µM (inactive) | 34.4 µM (inactive) | 45.3 µM (inactive) | 40.7 µM (inactive) | 48.8 µM (inactive) | 41.8 µM (inactive) | 76.9 µM (inactive) | 11.5 µM (inactive) | 
